Laboratory results taken from PubChem BioAssay AID743399 (Broad Institute, 2014).
Results filed as inconclusive are left out. Calls of active or inactive are those of the source.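 Rule for the calls: active = compounds lowering the signal whose fitted AC50 is no more than twice their top tested dose; inconclusive = flat curve with activity from -70 to -30%, or bad fit; inactive = the rest.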

test system: not listed separately; assay: miR-122 activators in Huh7 reporter cells, dose response, miR-122 modulator project, cell-based, psiCHECK-miR122, dry powder (AID 743399); conditions: Huh7 psiCHECK-miR122 Renilla luciferase reporter, 48 h; at 35 µM (top of the series)

Question: For `O=C(CN=C1NS(=O)(=O)c2ccccc21)Nc1ccccc1N1CCCCCC1`, which activity change, negative = miR122 activation is on record?
Answer: The activity change, negative = miR122 activation was -23.1% (inactive).

Question: With `CN1C(=O)c2cc(NC(=O)c3cccc(F)c3)ccc2OC[C@H]2O[C@@H](CC(=O)O)CC[C@H]21` as the compound, how does the activity change, negative = miR122 activation read?
Answer: Its activity change, negative = miR122 activation is 52.2% (inactive).

Question: Which activity change, negative = miR122 activation does the source give for `Cn1c(=O)c(=O)n(C)c2cc(S(=O)(=O)N3CCOCC3)ccc21` here?
Answer: Its activity change, negative = miR122 activation is 0% (inactive).

Question: With `C[C@H]1CN([C@@H](C)CO)C(=O)c2cc(-c3ccc(C#N)cc3)cnc2O[C@H]1CN(C)Cc1cncnc1` as the compound, how does the activity change, negative = miR122 activation read?
Answer: The activity change, negative = miR122 activation was -10.9% (inactive).

Question: Which activity change, negative = miR122 activation does the source give for `C[C@H]1CN([C@@H](C)CO)C(=O)c2cc(-c3ccc(C#N)cc3)cnc2O[C@H]1CN(C)C(=O)c1ccccc1` here?
Answer: The activity change, negative = miR122 activation was 10.9% (inactive).

Question: With `C/C=C/c1cnc2c(c1)C(=O)N([C@@H](C)CO)C[C@H](C)[C@H](CN(C)S(=O)(=O)c1ccc(OC)cc1)O2` as the compound, how does the activity change, negative = miR122 activation read?
Answer: Its activity change, negative = miR122 activation is 26.1% (inactive).

Question: With `O=C(Nc1ccc(-c2nc3ccccc3o2)cc1)c1cc(-n2cnnc2)ccc1Cl` as the compound, how does the activity change, negative = miR122 activation read?
Answer: Its activity change, negative = miR122 activation is 0% (inactive).

Question: With `CN1C(=O)c2cc(NC(=O)c3cccc(F)c3)ccc2OC[C@@H]2O[C@H](CC(=O)O)CC[C@H]21` as the compound, how does the activity change, negative = miR122 activation read?
Answer: Its activity change, negative = miR122 activation is -41.3% (inactive).

Question: With `CO[C@@H]1CN(C)C(=O)c2cc(NS(=O)(=O)c3ccc(Oc4ccccc4)cc3)ccc2OC[C@H](C)NC[C@@H]1C` as the compound, how does the activity change, negative = miR122 activation read?
Answer: Its activity change, negative = miR122 activation is 8.7% (inactive).

Question: With `CCOC(=O)N1CCC(NC(=O)c2ccc3nc(N4CCC(C)CC4)sc3c2)CC1` as the compound, how does the activity change, negative = miR122 activation read?
Answer: The activity change, negative = miR122 activation was 53.8% (inactive).

Question: For `O=C(NCc1ccccc1Cl)c1ccc(CNc2c(NC3CCCCC3)c(=O)c2=O)cc1`, which activity change, negative = miR122 activation is on record?
Answer: The activity change, negative = miR122 activation was -30.8% (inactive).

Question: For `O=S(=O)(NCCc1ccncc1)c1ccccc1`, which activity change, negative = miR122 activation is on record?
Answer: Its activity change, negative = miR122 activation is 515% (inactive).

Question: For `COCC(=O)N(C)C[C@@H]1Oc2ncc(-c3ccc(C#N)cc3)cc2C(=O)N([C@@H](C)CO)C[C@@H]1C`, which activity change, negative = miR122 activation is on record?
Answer: The activity change, negative = miR122 activation was -4.35% (inactive).

Question: Which activity change, negative = miR122 activation does the source give for `CN1C(=O)c2cc(NC(=O)c3cccc(F)c3)ccc2OC[C@@H]2O[C@@H](CC(=O)O)CC[C@@H]21` here?
Answer: Its activity change, negative = miR122 activation is -10.9% (inactive).

Question: With `O=C(c1ccc(CN2CCOCC2)cc1)N1CCc2ccccc21` as the compound, how does the activity change, negative = miR122 activation read?
Answer: Its activity change, negative = miR122 activation is 15.4% (inactive).

Question: With `CO[C@@H]1CN(C)C(=O)c2cc(NC(=O)c3ccc4c(c3)OCO4)ccc2OC[C@H](C)NC[C@@H]1C` as the compound, how does the activity change, negative = miR122 activation read?
Answer: Its activity change, negative = miR122 activation is -21.7% (inactive).

Question: With `CN1C(=O)c2cc(NC(=O)c3cccc(F)c3)ccc2OC[C@@H]2O[C@H](CC(=O)O)CC[C@@H]21` as the compound, how does the activity change, negative = miR122 activation read?
Answer: The activity change, negative = miR122 activation was -15.2% (inactive).

Question: For `CCOC(=O)N1CCC(NC(=O)c2ccc3c(c2)sc2nc(-c4ccccc4)cn23)CC1`, which activity change, negative = miR122 activation is on record?
Answer: The activity change, negative = miR122 activation was -23.1% (inactive).

Question: With `CN1C(=O)c2cc(NC(=O)c3cccc(F)c3)ccc2OC[C@H]2O[C@@H](CC(=O)O)CC[C@@H]21` as the compound, how does the activity change, negative = miR122 activation read?
Answer: Its activity change, negative = miR122 activation is 20.2% (inactive).

Question: For `CCCCN(CCCC)C(=O)CN(C)S(=O)(=O)c1ccc2c(c1)n(C)c(=O)c(=O)n2C`, which activity change, negative = miR122 activation is on record?
Answer: Its activity change, negative = miR122 activation is 46.2% (inactive).

Question: With `COc1cccc(C(=O)Nc2ccc3c(c2)C(=O)N(C)C[C@@H](OC)[C@@H](C)CN[C@@H](C)CO3)c1` as the compound, how does the activity change, negative = miR122 activation read?
Answer: Its activity change, negative = miR122 activation is 4.35% (inactive).

Question: For `CN1C(=O)c2cc(NC(=O)c3cccc(F)c3)ccc2OC[C@H]2O[C@H](CC(=O)O)CC[C@@H]21`, which activity change, negative = miR122 activation is on record?
Answer: Its activity change, negative = miR122 activation is -21.7% (inactive).

Question: With `Cc1cc(C(C)(C)C)cc(S(=O)(=O)N2CCOCC2)c1C` as the compound, how does the activity change, negative = miR122 activation read?
Answer: Its activity change, negative = miR122 activation is 92.3% (inactive).

Question: With `CN1C(=O)c2cc(NC(=O)c3cccc(F)c3)ccc2OC[C@H]2O[C@H](CC(=O)O)CC[C@H]21` as the compound, how does the activity change, negative = miR122 activation read?
Answer: The activity change, negative = miR122 activation was -17.4% (inactive).

test system: Huh7 psiCHECK-miR122 Renilla luciferase reporter, 48 h; assay: as above; conditions: not given

Question: Which AC50 does the source give for `C[C@H]1CN([C@@H](C)CO)C(=O)c2cc(C#Cc3ccccc3F)cnc2O[C@H]1CN(C)C(=O)C1CCCCC1` here?
Answer: Its AC50 is 20.6 µM.

Question: For `C[C@@H]1CN([C@@H](C)CO)S(=O)(=O)c2ccc(C#Cc3ccncc3)cc2O[C@@H]1CN(C)C(=O)C1CCOCC1`, which AC50 is on record?
Answer: Its AC50 is 0.838 µM.

Question: With `CNC[C@@H]1Oc2cc(C#CC3CCCCC3)ccc2S(=O)(=O)N([C@@H](C)CO)C[C@@H]1C` as the compound, how does the AC50 read?
Answer: The AC50 was 14.4 µM.

Question: With `O=C(CNCCC1=CCCCC1)Nc1ccccc1N1CCCCCC1` as the compound, how does the AC50 read?
Answer: Its AC50 is 16.3 µM.

Question: With `COCC(=O)N(C)C[C@H]1Oc2cc(C#Cc3cccnc3)ccc2S(=O)(=O)N([C@@H](C)CO)C[C@H]1C` as the compound, how does the AC50 read?
Answer: The AC50 was 0.354 µM.

Question: For `CCCC#Cc1ccc2c(c1)O[C@H](CN(C)C(=O)COC)[C@H](C)CN([C@@H](C)CO)S2(=O)=O`, which AC50 is on record?
Answer: Its AC50 is 1.1 µM.

Question: With `C[C@@H]1CN([C@H](C)CO)S(=O)(=O)c2ccc(C#Cc3ccncc3)cc2O[C@H]1CN(C)C(=O)C1CCOCC1` as the compound, how does the AC50 read?
Answer: Its AC50 is 0.496 µM.

Question: With `COc1ccc(S(=O)(=O)N(C)C[C@@H]2Oc3ncc(/C=C/c4ccccc4)cc3C(=O)N([C@@H](C)CO)C[C@@H]2C)cc1` as the compound, how does the AC50 read?
Answer: The AC50 was 22.1 µM.

Question: With `COCC(=O)N(C)C[C@H]1Oc2cc(C#Cc3cccnc3)ccc2S(=O)(=O)N([C@H](C)CO)C[C@H]1C` as the compound, how does the AC50 read?
Answer: The AC50 was under 0.26 µM.

Question: For `C[C@H]1CN([C@@H](C)CO)S(=O)(=O)c2ccc(C#Cc3ccncc3)cc2O[C@H]1CN(C)C(=O)C1CCOCC1`, which AC50 is on record?
Answer: The AC50 was 20.7 µM.

Question: Which AC50 does the source give for `C[C@H]1CN([C@@H](C)CO)S(=O)(=O)c2ccc(C#Cc3ccncc3)cc2O[C@@H]1CN(C)C(=O)C1CCOCC1` here?
Answer: The AC50 was 9.44 µM.

Question: Which AC50 does the source give for `C[C@@H]1CN([C@H](C)CO)S(=O)(=O)c2ccc(C#Cc3ccncc3)cc2O[C@@H]1CN(C)C(=O)C1CCOCC1` here?
Answer: The AC50 was 0.896 µM.

Question: With `C[C@H](CO)N1C[C@H](C)[C@@H](CN(C)C(=O)C2CCOCC2)Oc2cc(C#Cc3ccncc3)ccc2S1(=O)=O` as the compound, how does the AC50 read?
Answer: Its AC50 is 5.46 µM.

Question: With `OCc1ccc(-c2nn(Cc3ccccc3)c3ccccc23)o1` as the compound, how does the AC50 read?
Answer: Its AC50 is 0.449 µM.

Question: For `CN1C(=O)c2cc(NC(=O)c3cccc(F)c3)ccc2OC[C@@H]2O[C@@H](CC(=O)O)CC[C@H]21`, which AC50 is on record?
Answer: The AC50 was > 60 µM (inactive).

Question: For `Cc1cccc(NC(=O)Nc2ccc3c(c2)C(=O)N(C)[C@@H]2CC[C@H](CC(=O)NCc4ccccc4Cl)O[C@H]2CO3)c1`, which AC50 is on record?
Answer: The AC50 was 22.2 µM.

Question: Which AC50 does the source give for `Nc1ccc(Oc2ccc(Br)cc2)cc1` here?
Answer: The AC50 was 1.09 µM.

Question: With `Nc1ccc(Oc2ccc(Cl)cc2)cc1` as the compound, how does the AC50 read?
Answer: The AC50 was 3.4 µM.

Question: Which AC50 does the source give for `Cc1cc(C(C)(C)C)cc(S(=O)(=O)NCCc2ccncc2)c1C` here?
Answer: Its AC50 is 2.34 µM.

Question: For `CN(C)CCN1C(=O)c2cccc3cc(N)cc(c23)C1=O`, which AC50 is on record?
Answer: Its AC50 is 10.7 µM.

Question: Which AC50 does the source give for `COc1cccc(-c2ccc3c(c2)O[C@H](CN(C)C(=O)C2CCOCC2)[C@H](C)CN([C@@H](C)CO)S3(=O)=O)c1` here?
Answer: The AC50 was 4.07 µM.

Question: With `COCC(=O)N(C)C[C@H]1Oc2cc(-c3ccccc3F)ccc2S(=O)(=O)N([C@H](C)CO)C[C@H]1C` as the compound, how does the AC50 read?
Answer: Its AC50 is under 0.26 µM.

Question: For `CO[C@@H]1CN(C)C(=O)c2cc(NC(=O)c3cccc(Oc4ccccc4)c3)ccc2OC[C@H](C)NC[C@@H]1C`, which AC50 is on record?
Answer: The AC50 was 7.62 µM.

Question: Which AC50 does the source give for `C[C@@H]1CN([C@H](C)CO)S(=O)(=O)c2ccc(/C=C/c3ccccc3)cc2O[C@@H]1CN(C)C(=O)c1cccnc1` here?
Answer: The AC50 was 7.29 µM.

Question: Which AC50 does the source give for `C[C@H]1CN([C@@H](C)CO)C(=O)c2cc(-c3ccc(C#N)cc3)cnc2O[C@H]1CN(C)C(=O)Nc1ccc(C(F)(F)F)cc1` here?
Answer: Its AC50 is 6.96 µM.

Question: Which AC50 does the source give for `COCC(=O)N(C)C[C@H]1Oc2cc(-c3ccc(C#N)cc3)ccc2S(=O)(=O)N([C@H](C)CO)C[C@H]1C` here?
Answer: Its AC50 is 0.324 µM.

Question: For `CCn1cc(C(=O)O)c(=O)c2cc(F)c(N3CCNCC3)nc21`, which AC50 is on record?
Answer: The AC50 was > 70 µM (inactive).

Question: Which AC50 does the source give for `COCC(=O)N(C)C[C@H]1Oc2cc(-c3ccc(C#N)cc3)ccc2S(=O)(=O)N([C@@H](C)CO)C[C@H]1C` here?
Answer: Its AC50 is 0.341 µM.

Question: For `COCC(=O)N(C)C[C@H]1Oc2cc(-c3ccccc3F)ccc2S(=O)(=O)N([C@@H](C)CO)C[C@H]1C`, which AC50 is on record?
Answer: Its AC50 is 0.278 µM.

Question: For `O=C(c1ccc(CNc2c(NC3CCCCC3)c(=O)c2=O)cc1)N1CCc2ccccc21`, which AC50 is on record?
Answer: Its AC50 is 1.18 µM.

Question: Which AC50 does the source give for `CCCC#Cc1ccc2c(c1)O[C@H](CN(C)C(=O)c1ccncc1)[C@H](C)CN([C@@H](C)CO)S2(=O)=O` here?
Answer: Its AC50 is 12.8 µM.
